pIC50: −log10 of the molar value. Like-named read-outs stand apart in the source and are kept apart here.
Columns and labels:
[1] = target: T1, GSK3β (Homo sapiens, UniProt P49841); assay: Z'-LYTE kinase assay, […] ATP, […] min preincubation (IC50 […] without preincubation); type: biochemical
T1 construct: gene GSK3B

[2] = target: T1, GSK3β; assay: as above; type: biochemical; remark: listed apart in the source

T1 sequence (P49841 whole entry): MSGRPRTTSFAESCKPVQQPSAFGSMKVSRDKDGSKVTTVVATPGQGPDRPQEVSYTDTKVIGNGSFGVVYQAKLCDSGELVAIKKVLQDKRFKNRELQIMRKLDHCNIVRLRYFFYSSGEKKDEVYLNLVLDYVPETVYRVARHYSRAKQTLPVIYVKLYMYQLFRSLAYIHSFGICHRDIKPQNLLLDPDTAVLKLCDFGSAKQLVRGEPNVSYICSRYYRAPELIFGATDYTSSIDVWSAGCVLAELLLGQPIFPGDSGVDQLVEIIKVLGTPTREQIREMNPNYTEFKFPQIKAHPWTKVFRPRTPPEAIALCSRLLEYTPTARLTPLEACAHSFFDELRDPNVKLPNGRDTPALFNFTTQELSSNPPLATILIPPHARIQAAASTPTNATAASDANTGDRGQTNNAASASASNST

Structure (SMILES)	pIC50 [1]	pIC50 [2]
C=CC1=C(C(=O)O)N2C(=O)[C@@H](NC(=O)/C(=N\OCC(=O)O)c3csc(N)n3)[C@H]2SC1 [A, cefixime]	6.26	–
CO/N=C(\C(=O)N[C@@H]1C(=O)N2C(C(=O)O)=C(CSc3nc(=O)c(=O)[nH]n3C)CS[C@H]12)c1csc(N)n1 [B, ceftriaxone]	–	6.11
